Laboratory results taken from patent US20220356174A1, “PYRIDIN-2-ONE COMPOUNDS USEFUL AS SMARCA2 ANTAGONISTS” (Epizyme, Inc., priority 2018, published 2022).

What was measured:
[1] = biological target: T1, FL-SMARCA2 (full-length human SMARCA2 isoform 1) (Homo sapiens, UniProt P51531); test: SMARCA2 ATPase activity assay (ADP-Glo, chicken mononucleosome substrate); assay type: biochemical; details: ATPase assay, enzyme 5 nM, ATP 250 uM, chicken mononucleosome 10 nM, 30 min preincubation
T1 construct: FLAG tag (YKDDDDK) (C); made in house; host or cells: Sf21 insect cells (baculovirus, pFastBacI)
T1 sequence (P51531 with tags, fused parts or gaps): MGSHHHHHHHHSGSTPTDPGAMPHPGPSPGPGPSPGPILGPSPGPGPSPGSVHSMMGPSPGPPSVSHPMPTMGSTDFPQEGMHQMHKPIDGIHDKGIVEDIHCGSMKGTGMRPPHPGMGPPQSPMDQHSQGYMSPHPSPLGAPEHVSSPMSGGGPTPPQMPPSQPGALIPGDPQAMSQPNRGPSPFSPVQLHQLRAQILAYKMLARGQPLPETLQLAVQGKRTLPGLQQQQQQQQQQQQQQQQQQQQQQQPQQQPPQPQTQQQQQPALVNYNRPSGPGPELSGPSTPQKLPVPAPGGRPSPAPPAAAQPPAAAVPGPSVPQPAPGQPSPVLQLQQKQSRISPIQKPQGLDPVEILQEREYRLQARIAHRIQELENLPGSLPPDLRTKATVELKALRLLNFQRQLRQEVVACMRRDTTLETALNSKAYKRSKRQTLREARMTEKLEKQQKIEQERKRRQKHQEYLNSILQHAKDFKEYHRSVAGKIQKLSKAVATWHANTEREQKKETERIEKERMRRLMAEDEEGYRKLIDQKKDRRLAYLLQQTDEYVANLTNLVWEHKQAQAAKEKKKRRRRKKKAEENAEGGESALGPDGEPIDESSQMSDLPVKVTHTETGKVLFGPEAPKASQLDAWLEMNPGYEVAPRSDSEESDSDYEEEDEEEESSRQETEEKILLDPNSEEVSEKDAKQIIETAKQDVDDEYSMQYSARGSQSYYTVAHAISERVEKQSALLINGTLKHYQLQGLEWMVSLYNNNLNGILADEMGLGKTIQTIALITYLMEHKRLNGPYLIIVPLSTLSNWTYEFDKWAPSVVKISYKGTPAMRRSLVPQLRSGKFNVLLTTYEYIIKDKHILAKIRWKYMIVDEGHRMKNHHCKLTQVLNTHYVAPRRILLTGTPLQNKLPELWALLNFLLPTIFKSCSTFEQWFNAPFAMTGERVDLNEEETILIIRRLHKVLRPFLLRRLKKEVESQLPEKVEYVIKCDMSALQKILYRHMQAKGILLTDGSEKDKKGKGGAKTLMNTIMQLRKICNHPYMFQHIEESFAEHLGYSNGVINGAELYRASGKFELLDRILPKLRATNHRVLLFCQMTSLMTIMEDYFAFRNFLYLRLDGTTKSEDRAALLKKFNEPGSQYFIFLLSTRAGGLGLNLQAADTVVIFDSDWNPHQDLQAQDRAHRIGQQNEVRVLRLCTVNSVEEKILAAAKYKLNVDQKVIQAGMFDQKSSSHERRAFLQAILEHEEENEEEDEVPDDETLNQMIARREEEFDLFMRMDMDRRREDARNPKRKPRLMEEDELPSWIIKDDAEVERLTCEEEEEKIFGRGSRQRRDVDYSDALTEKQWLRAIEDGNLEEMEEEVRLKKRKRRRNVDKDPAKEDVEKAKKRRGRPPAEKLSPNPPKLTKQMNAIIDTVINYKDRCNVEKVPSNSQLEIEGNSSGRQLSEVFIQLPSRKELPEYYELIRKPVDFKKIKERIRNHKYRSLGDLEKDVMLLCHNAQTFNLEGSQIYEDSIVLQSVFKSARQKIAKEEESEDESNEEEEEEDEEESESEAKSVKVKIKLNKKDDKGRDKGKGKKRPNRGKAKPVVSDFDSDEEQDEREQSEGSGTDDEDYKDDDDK

[2] = test system: H358 cells; test: High-throughput proliferation (HTP) assay for H358 cells (CellTiter-Glo, 7 days); assay type: cell-based; details: Homo sapiens, NCI-H358, 168 h, read-out: H358 SMARCA2 IC50
Summary of the method: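 Cells were plated at 1,000 cells/well in RPMI 1640 + 10% HI-FBS + 1% pen/strep on pre-dispensed compound and incubated 7 days at 37 °C, 5% CO2. Viability was read as ATP luminescence with CellTiter-Glo after 30 min at RT. DMSO served as 0% and 10 µM doxorubicin as 100% inhibition for EC50/IC50.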

[3] = biological target: FL-SMARCA4 (Homo sapiens, UniProt P51532); test: SMARCA4 ATPase activity assay (ADP-Glo, chicken mononucleosome substrate); details: ATPase assay, enzyme 5 nM, ATP 250 uM, chicken mononucleosome 10 nM, 30 min preincubation
Sequence of FL-SMARCA4 (P51532 whole entry): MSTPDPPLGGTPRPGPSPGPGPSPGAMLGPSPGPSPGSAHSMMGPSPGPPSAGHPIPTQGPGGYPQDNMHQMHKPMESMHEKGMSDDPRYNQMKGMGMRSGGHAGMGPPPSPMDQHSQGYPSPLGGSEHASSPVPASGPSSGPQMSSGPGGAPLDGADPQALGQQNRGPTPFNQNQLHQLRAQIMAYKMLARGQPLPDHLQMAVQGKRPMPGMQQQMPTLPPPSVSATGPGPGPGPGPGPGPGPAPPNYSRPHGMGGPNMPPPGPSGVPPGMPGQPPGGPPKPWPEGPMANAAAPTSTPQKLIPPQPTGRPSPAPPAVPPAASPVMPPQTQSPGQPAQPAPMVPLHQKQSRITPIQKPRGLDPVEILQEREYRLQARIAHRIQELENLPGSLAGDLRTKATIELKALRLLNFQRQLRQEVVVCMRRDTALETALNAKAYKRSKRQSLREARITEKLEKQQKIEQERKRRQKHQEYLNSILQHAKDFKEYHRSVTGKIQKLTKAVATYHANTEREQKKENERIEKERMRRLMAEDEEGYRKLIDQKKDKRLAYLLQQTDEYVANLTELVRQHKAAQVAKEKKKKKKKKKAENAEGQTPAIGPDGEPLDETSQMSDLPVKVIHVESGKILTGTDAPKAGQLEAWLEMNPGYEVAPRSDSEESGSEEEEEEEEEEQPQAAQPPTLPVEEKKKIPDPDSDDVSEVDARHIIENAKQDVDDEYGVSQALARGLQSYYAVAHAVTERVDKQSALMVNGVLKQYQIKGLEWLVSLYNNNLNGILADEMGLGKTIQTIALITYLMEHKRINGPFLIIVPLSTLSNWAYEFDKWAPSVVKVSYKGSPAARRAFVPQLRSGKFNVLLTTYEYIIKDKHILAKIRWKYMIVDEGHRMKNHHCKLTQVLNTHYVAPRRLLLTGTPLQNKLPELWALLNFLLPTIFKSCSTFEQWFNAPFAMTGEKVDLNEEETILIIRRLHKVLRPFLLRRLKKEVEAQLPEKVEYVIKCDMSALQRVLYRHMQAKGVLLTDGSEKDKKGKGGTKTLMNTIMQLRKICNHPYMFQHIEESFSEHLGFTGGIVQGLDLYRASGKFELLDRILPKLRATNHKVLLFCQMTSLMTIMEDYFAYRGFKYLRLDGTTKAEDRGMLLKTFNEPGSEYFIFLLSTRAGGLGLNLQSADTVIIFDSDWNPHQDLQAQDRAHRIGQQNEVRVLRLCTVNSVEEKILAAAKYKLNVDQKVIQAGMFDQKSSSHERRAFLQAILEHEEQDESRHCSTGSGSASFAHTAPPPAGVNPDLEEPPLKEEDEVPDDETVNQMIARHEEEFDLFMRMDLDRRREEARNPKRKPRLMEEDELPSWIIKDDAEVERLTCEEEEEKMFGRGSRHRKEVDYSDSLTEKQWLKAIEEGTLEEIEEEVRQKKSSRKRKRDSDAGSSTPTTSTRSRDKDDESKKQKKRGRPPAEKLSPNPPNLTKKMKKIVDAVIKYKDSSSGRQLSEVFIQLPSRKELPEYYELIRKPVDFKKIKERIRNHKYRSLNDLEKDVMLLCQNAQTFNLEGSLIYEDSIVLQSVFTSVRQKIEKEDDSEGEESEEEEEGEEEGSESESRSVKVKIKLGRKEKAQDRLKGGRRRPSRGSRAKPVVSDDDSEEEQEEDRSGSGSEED

[4] = biological target: T2, SMARCA2 (Homo sapiens, UniProt P51531); test: SMARCA2 FRET nucleosome remodeling activity assay; assay type: biochemical
T2 construct: FLAG tag (YKDDDDK) (C); made in house; host or cells: Sf21 insect cells (baculovirus, pFastBacI)
T2 sequence (P51531 with tags, fused parts or gaps): as the sequence (P51531 with tags, fused parts or gaps) above
Description: The SMARCA2 remodeling assay was initiated by the addition of 2 uL of a nucleosome remodeling assay substrate and ATP mixture (final volume=10 uL). […] The assays were terminated after 15 minutes by the addition of 2 uL EDTA (final concentration of 25 mM). The SMARCA2 remodeling activity was determined by measuring the fluorescence ratio of the Cy3 and Cy5 labels ([…]). The remodeling of the nucleosome substrate causes an increase in the spacing between the Cy3 and Cy5 labels and therefore a reduction in FRET and an increase in Cy3/Cy5 fluorescence ratio.

## N#Cc1cc(C(=O)Nc2cc(F)c(=O)n(CC(F)F)c2)sc1C(F)(F)F [Compound 82c, 4-cyano-N-[1-(2,2-difluoroethyl)-5-fluoro-6-oxopyridin-3-yl]-5-(trifluoromethyl)thiophene-2-carboxamide]
[1]; Table 3c.1
  IC50: 0.00988 µM
[2]
  IC50: > 10 µM
[3]; FL-SMARCA4 IC>50, Table 3c.2
  IC50: 0.0661 µM

## O=C(Nc1cc(F)c(=O)n(CC(F)F)c1)c1cc(Cl)c(C(F)(F)F)s1 [Compound 298, 4-Chloro-N-(1-(2,2-difluoroethyl)-5-fluoro-6-oxo-1,6-dihydropyridin-3-yl)-5-(trifluoromethyl)thiophene-2-carboxamide]
[1]; Table 3.1
  IC50: 0.0241 µM
[4]
  IC50: 0.0471 µM
[2]
  IC50: > 10 µM
[3]; FL-SMARCA4 IC50, Table 3.2
  IC50: 0.165 µM

## N#Cc1sc(C(=O)Nc2cc(F)c(=O)n(CCF)c2)cc1Cl [Compound 139]
[1]; Table 3.1
  IC50: 0.0196 µM
[4]
  IC50: 0.0253 µM
[3]; FL-SMARCA4 IC50, Table 3.2
  IC50: 0.0541 µM
